Source: US6670394B1, “Method for treating COPD” (SmithKline Beecham Corporation, priority 1999, dated 2003)

How the values were obtained:
[1] = biological target: T1, low affinity form of PDE 4 (human monocyte PDE 4 / hrPDE) (Homo sapiens, UniProt P27815); assay: PDE 4 catalytic activity assay (low affinity form, LPDE 4); format: biochemical; conditions: HPDE 4 IC50/LPDE 4 IC50
T1 construct: made in house; host or cells: yeast
Source text: Overall, most of the recombinant PDE 4 expressed in this system exists as LPDE 4 and only a small fraction as HPDE 4. Consequently, inhibition of recombinant PDE 4 catalytic activity primarily reflects the actions of compounds at LPDE 4. Inhibition of PDE 4 catalytic activity can thus be used as an index of the potency of compounds at LPDE 4.

[2] = tested on: acid secretion; conditions: rats, particularly in combination with an activator of adenylate cyclase such as histamine; cited from earlier work
[3] = clinical studies; cited from earlier work
[4] = biological target: high affinity rolipram binding site of PDE 4; assay: [3H]-rolipram binding competition assay (high affinity form, HPDE 4); conditions: competition for 1 nM [3H]-rolipram, rat brain high speed supernatants, 1 hour at 30° C.
Method: Rat brain high speed supernatants were used as a source of protein. […] The assay was run for 1 hour at 30° C. The reaction was terminated and bound ligand was separated from free ligand using a Brandel cell harvester. Competition for the high affinity binding site was assessed under conditions that were identical to those used for measuring low affinity PDE activity, expect that [^3H]-cAMP and [^3H]5′-AMP were not present.

[5] = tested on: TNFα production from isolated human monocytes; acid secretion in isolated rabbit parietal glands; assay: Therapeutic index, in vitro comparison: TNFα suppression in human monocytes versus acid secretion in rabbit parietal glands; format: cell-based; conditions: in comparison with R-rolipram
Method: Samples were then centrifuged and radioactivity in aliquots of the supernatant fraction and pellet were determined. […] The data were expressed as a percent of a response produced by a maximal concentration of histamine (100 μM). EC50 values were determined by linear interpolation using the maximum response obtained for each compound.
TNFα inhibition was assessed in human peripheral blood monocytes which were purified (Collata) from freshly obtained buffy coats or plasma-phoresis residues of blood from normal human donors. […] The cells were allowed to adhere for 1 hr, after which time the supernatant was aspirated and 1 ml of fresh medium (RPMI-1640 containing 1% fetal calf serum and penicillin/streptomycin at 10 U/ml) was added. The cells were incubated for 45 min in the presence or absence of test compounds at concentrations ranging from 1 nM to 1 mM prior to the addition of LPS (E. coli. 055:B5, Sigma Chemicals) to yield a final concentration of 100 ng/ml. […]
Levels of TNFα were measured using a ELISA (Winston) employing a murine monoclonal anti-human TNFα antibody (see below) as the capture antibody and a polyclonal rabbit antihuman TNFα as the second antibody. […] TNFα levels in samples were calculated from a standard curve generated with recombinant human TNFα produced in E. coli. […]

[6] = tested on: COPD; assay: Administration to humans suffering from COPD; format: in vivo, human
Method: As regards treating COPD, the compound cis-[4-cyano-4-(3-cyclopentyloxy-4-methoxyphenyl)cyclohexan-1-carboxylate] was administered to humans suffering from COPD.

T1 sequence (P27815 1-686 isoform P27815-3): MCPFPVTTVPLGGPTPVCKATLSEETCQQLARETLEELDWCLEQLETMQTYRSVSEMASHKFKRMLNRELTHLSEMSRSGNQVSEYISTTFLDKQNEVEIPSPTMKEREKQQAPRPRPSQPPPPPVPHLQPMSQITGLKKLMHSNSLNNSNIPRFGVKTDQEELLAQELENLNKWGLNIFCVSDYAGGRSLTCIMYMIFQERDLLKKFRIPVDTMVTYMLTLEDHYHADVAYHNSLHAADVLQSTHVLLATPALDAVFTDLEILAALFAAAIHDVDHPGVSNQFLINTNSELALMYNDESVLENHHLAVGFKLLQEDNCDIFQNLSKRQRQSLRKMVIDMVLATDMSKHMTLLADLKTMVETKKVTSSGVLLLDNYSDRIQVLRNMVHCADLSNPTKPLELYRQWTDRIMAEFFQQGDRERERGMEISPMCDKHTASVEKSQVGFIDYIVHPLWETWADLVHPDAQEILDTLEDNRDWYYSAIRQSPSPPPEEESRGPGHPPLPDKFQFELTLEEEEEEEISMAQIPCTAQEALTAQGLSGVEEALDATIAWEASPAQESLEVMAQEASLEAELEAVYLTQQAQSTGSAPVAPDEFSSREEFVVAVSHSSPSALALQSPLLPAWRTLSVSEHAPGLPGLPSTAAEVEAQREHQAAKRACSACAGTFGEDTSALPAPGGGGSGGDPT

SMILES: COc1ccc(C2CCN(Cc3ccc(NC(=NC#N)SC)cc3)C2=O)cc1OC1CCCC1 (centres unmarked) [3-(cyclopentyloxy-4-methoxyphenyl)-1-(4-N′-[N2-cyano-S-methyl-isothioureido]benzyl)-2-pyrrolidone]
- High/Low Ratio (IC50 high affinity form divided by IC50 low affinity form) [1]: 0.30

SMILES: CCOC(=O)C=C1C[C@H](c2ccc(OC)c(OC3CCCC3)c2)CN1 [(R)-(+)-ethyl [4-(3-cyclopentyloxy-4-methoxyphenyl)pyrrolidine-2-ylidene]acetate]
- High/Low Ratio (IC50 high affinity form divided by IC50 low affinity form) [1]: 2.143

SMILES: NC(=O)C(=O)NCCc1ccc(OC(F)F)c(OC(F)F)c1 [N-[2-(3,4-bisdifluoromethoxy-phenyl)ethyl]oxamide]
- High/Low Ratio (IC50 high affinity form divided by IC50 low affinity form) [1]: 0.25

SMILES: COc1ccc(C2CN(Cc3ccc(N)cc3)C(=O)N2)cc1OC1CCCC1 (centres unmarked) [1-(4-aminobenzyl)-4-(3-cyclopentyloxy-4-methoxyphenyl)-2-imidazolidinone]
- High/Low Ratio (IC50 high affinity form divided by IC50 low affinity form) [1]: 0.07

SMILES: COc1ccc(C2CNC(=O)C2)cc1OC1CCCC1 (centres unmarked) [rolipram]
- acid secretion [2]: enhance acid secretion
- side effects [3]: has psychotropic activity and produces gastrointestinal effects

SMILES: COc1ccc([C@@H]2CC[C@H](C(=O)O)C2)cc1OC1CCCC1 (relative stereo) [cis-[3-(3-cyclopentyloxy-4-methoxyphenyl)cyclopentane-1-carboxylate]]
- High/Low Ratio (IC50 high affinity form divided by IC50 low affinity form) [1]: 0.0078
- IC50 [4]: 21 nM

SMILES: N#CC1(c2ccc(OC(F)F)c(OCC3CC3)c2)CCC(O)CC1 (stereo not drawn) [cis-[4-cyano-4-(3-cyclopropylmethoxy-4-difluoromethoxyphenyl)cyclohexan-1-ol]]
- improvement in therapeutic index [5]: 100 fold

SMILES: CCOC(=O)C=C1C[C@@H](c2ccc(OC)c(OC3CCCC3)c2)CN1 [(S)-(−)-ethyl[4-(3-cyclopentyloxy-4-methoxyphenyl)pyrrolidine-2-ylidene]acetate]
- High/Low Ratio (IC50 high affinity form divided by IC50 low affinity form) [1]: .98

SMILES: COc1ccc(C2CCC(c3nnn[nH]3)C2)cc1OC1CCCC1 (centres unmarked) [1-(5-tetrazole)-3-(3-cyclopentyloxy-4-methoxyphenyl)cyclopentane]
- High/Low Ratio (IC50 high affinity form divided by IC50 low affinity form) [1]: 0.0018

SMILES: CC(C)Cn1c(=O)n(C)c(=O)c2[nH]cnc21 [IBMX, reference compound]
- High/Low Ratio (IC50 high affinity form divided by IC50 low affinity form) [1]: 0.698

SMILES: COC(=O)C1CC(C#N)(c2ccc(OC(F)F)c(OCC3CC3)c2)CCC1=O (centres unmarked) [2-carbomethoxy-4-cyano-4-(3-cyclopropylmethoxy-4-difluoromethoxyphenyl)cyclohexan-1-one]
- improvement in therapeutic index [5]: 100 fold

SMILES: OCCN(CCO)c1nc(N2CCCCC2)c2nc(N(CCO)CCO)nc(N3CCCCC3)c2n1 [dipyridamole, reference compound]
- High/Low Ratio (IC50 high affinity form divided by IC50 low affinity form) [1]: 6.25

SMILES: COc1ccc(C2(C#N)CCC(C(=O)O)CC2)cc1OC1CCCC1 (stereo not drawn) [cis-[4-cyano-4-(3-cyclopentyloxy-4-methoxyphenyl)cyclohexan-1-carboxylate]]
- effect in subjects suffering from COPD [6]: reduced inflammation, bronchodilation and pulmonary neuromodulation

SMILES: CCCCOc1cc(CC2CNC(=O)N2)ccc1OC (centres unmarked) [Ro 20-1724]
- acid secretion [2]: enhance acid secretion

SMILES: COc1ccc(CCNC(=O)C(N)=O)cc1OC1CCCC1 [N-[2-(3-cyclopentyloxy-4-methoxyphenyl)ethyl]oxamide]
- High/Low Ratio (IC50 high affinity form divided by IC50 low affinity form) [1]: 0.013
